Laboratory results: patent US20250195432A1, “METHODS FOR PREPARING AND CHARACTERIZING ZEIN-FUCOIDAN CONJUGATED NANO-LIPOSOME FOR PHYTOL ENCAPSULATION” (Zhejiang Academy of Forestry, priority 2023, published 2025)

Legend:
HepG2 cells [1] = assay: MDA content in HepG2 cells with TBHP-induced oxidative damage; format: cell-based, human; details: HepG2, TBHP (10 μg/mL)
Procedure: (§1) • culturing the digested HepG2 cells for 24 hours and then adding […] concentrations of PHY, P-ZF, P-NL, and P-NL-ZF to the plate for another 24 hours of incubation; […]; measuring a cell survival rate, an intracellular reactive oxygen species (ROS) level, malondialdehyde (MDA) content, and superoxide dismutase (SOD) activity.
(§2) • placing the digested HepG2 cells in a culture dish and performing a treatment as in step (O); adding 10.00 μM 2′,7′-dichlorodihydrofluorescein diacetate (DCFH-DA) and incubating for 0.5 hours, followed by washing with PBS (pH 7.4); allowing intracellular esterase to cleave the DCFH-DA, which is then oxidized to highly fluorescent dichlorofluorescein in the presence of ROS; measuring a fluorescence intensity of the 96-well plate using a multifunctional microplate reader at an excitation wavelength of 485 nm and an emission wavelength of 528 nm, expressing the intracellular ROS level as a percentage of the negative control group; • assessing the SOD activity and the MDA content by culturing the digested HepG2 cells for 24 hours; after the treatment as in step (O), adding 300 μL of lysis buffer and incubating on ice for 30 minutes; centrifuging at 11,000×g for 5 minutes at 4° C. and collecting a resulting supernatant; and quantifying the SOD activity and the MDA content according to instructions of SOD and MDA assay kits; and […]

HepG2 cells [2] = assay: Intracellular ROS level (DCFH-DA) in HepG2 cells with TBHP-induced oxidative damage; format: cell-based, human; details: for ROS level (percentage of the negative control group): HepG2, pre-treatment 100 μg/mL phytol 24 h, then TBHP (10 μg/mL)
Procedure: • […], P-ZF, P-NL, and P-NL-ZF to the plate for another 24 hours of incubation; […]; measuring a cell survival rate, an intracellular reactive oxygen species (ROS) level, malondialdehyde (MDA) content, and superoxide dismutase (SOD) activity.
• placing the digested HepG2 cells in a culture dish and performing a treatment as in step (O); adding 10.00 μM 2′,7′-dichlorodihydrofluorescein diacetate (DCFH-DA) and incubating for 0.5 hours, followed by washing with PBS (pH 7.4); allowing intracellular esterase to cleave the DCFH-DA, which is then oxidized to highly fluorescent dichlorofluorescein in the presence of ROS; measuring a fluorescence intensity of the 96-well plate using a multifunctional microplate reader at an excitation wavelength of 485 nm and an emission wavelength of 528 nm, expressing the intracellular ROS level as a percentage of the negative control group; • assessing the SOD activity and the MDA content by culturing the digested HepG2 cells for 24 hours; after the treatment as in step (O), adding 300 μL of lysis buffer and incubating on ice for 30 minutes; centrifuging at 11,000×g for 5 minutes at 4° C. and collecting a resulting supernatant; and quantifying the SOD activity and the MDA content according to instructions of SOD and MDA assay kits; and
• seeding the digested cells at a density of 3×10^5 cells per well into a 6-well plate and incubating for 24 hours; after incubation, aspirating a culture medium and continuing with the grouping and treatment as in step (0); after 24 hours, replacing an original solution with 25 μM DCFH-DA solution and incubating for 60 minutes; washing the cells twice with PBS to remove unabsorbed probes; observing a fluorescence generated within the cells by placing the 6-well plate under a fluorescence microscope equipped with an FITC fluorescence channel.
HepG2 cells, after digestion, were seeded at a density of 1×10^5 cells/well in a 96-well cell culture plate and were placed in a cell culture incubator. […]

HepG2 cells [3] = assay: TBHP-induced oxidative damage concentration, cell viability by CCK-8; format: cell-based, human; details: HepG2, TBHP 10 μg/mL, 24 hours
Procedure: HepG2 cells, after digestion, were seeded at a density of 1×10^5 cells/well in a 96-well cell culture plate and were incubated in a cell culture incubator. […] After 24 hours of incubation, the culture medium was removed, and the working solutions of TBHP at different concentrations were added to the wells, followed by an additional 24 hours of incubation. After the incubation period, the vitality of the HepG2 cells was assessed using the CCK-8 method, as detailed in section 2.6.4.

HepG2 cells [4] = assay: SOD activity in HepG2 cells with TBHP-induced oxidative damage; format: cell-based, human; details: HepG2, TBHP (10 μg/mL)
Procedure: as §1, §2

[5] = Hydroxyl radical scavenging activity; format: biochemical; details: 37° C., 30 minutes, absorbance 536 nm
Procedure: • mixing 1.00 mL of the nanoliposomes with 1.00 mL of 9.00 mmol/L salicylic acid ethanol solution, 1.00 mL of 9.00 mmol/L FeCl2, and 1.00 mL of 8.80 mmol/L H2O2; incubating a resulting mixture in the dark at 37° C. for 30 minutes; measuring an absorbance of a reaction mixture at 536 nm using a multifunctional microplate reader and calculating a hydroxyl radical scavenging rate;
A sample of the nanoliposome (1.00 mL) was mixed with an ethanol solution of salicylic acid (1.00 mL, 9.00 mmol/L), FeCl2 (1.00 mL, 9.00 mmol/L), and H2O2(1.00 mL, 8.80 mmol/L) and incubated in the dark at 37° C. for 30 minutes. The absorbance of the reaction mixture was measured at 536 nm using a multifunctional microplate reader (Varioskan Flash, Thermo Fisher Scientific, Massachusetts, USA). The hydroxyl radical scavenging rate was calculated using the following formula: […]

[6] = Photostability under UV light, phytol retention by GC-MS; format: physicochemical; details: after 16 hours of UV exposure; free phytol in ethanol
Procedure: • exposing a sample to ultraviolet (UV) light for various irradiation durations: […], 90 minutes, 120 minutes, 150 minutes, 180 minutes, 210 minutes, 240 minutes, 270 minutes, […]; and determining retention of phytol content using GC-MS.
To assess the photostability of phytol loaded in nanoparticles (P-ZF, P-NL, and P-NL-ZF) as well as free phytol dissolved in ethanol, samples were irradiated under UV light for various durations: […], 90 minutes, 120 minutes, 150 minutes, 180 minutes, 210 minutes, 240 minutes, 270 minutes, […] The content of retained phytol was determined using GC-MS as described in Section 2.5.2. The calculation formula for retention rate is given as follows: […]

CC(C)(C)OO [TBHP, Tert-Butyl Hydrogen Peroxide]
MDA level (lipid peroxidation) (HepG2 cells [1]): significant increase in MDA
ROS level (percentage of the negative control group) (HepG2 cells [2]): 328.42%
cell viability (HepG2 cells [3]): 65.67%
SOD activity (HepG2 cells [4]): 8.43 U/mg protein

(2E,3,7R,11R,15)-tetramethyl-hexadecen-1-ol [PHY]
reduction of ROS level compared to the positive control (328.16%) (HepG2 cells [2]; HepG2, TBHP (10 μg/mL)): 97.44%
ROS level (percentage of the negative control group) (HepG2 cells [2]): 230.72%
scavenging capability against •OH radicals [5]: 40%
SOD activity (HepG2 cells [4]): 11.61 U/mg protein
retention rate of phytol under UV [6]: 1.21%
